Reference: PubChem BioAssay (NCI)
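Method: 48-hour compound exposure of cells in 96-well plates, five concentrations, linear interpolation of endpoints. TGI: concentration producing complete growth inhibition.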

How the values were obtained:
Test in all cases: DTP human tumour cell line panel, 48 h
NCI-H226 lung = test system: NCI-H226 lung
MCF7 breast = test system: MCF7 breast
DU-145 prostate = test system: DU-145 prostate
NCI-H23 lung = test system: NCI-H23 lung
IGROV1 ovarian = test system: IGROV1 ovarian
MDA-MB-435 = test system: MDA-MB-435
UO-31 renal = test system: UO-31 renal
SK-OV-3 ovarian = test system: SK-OV-3 ovarian
MALME-3M melanoma = test system: MALME-3M melanoma
SR leukemia = test system: SR leukemia
ACHN renal = test system: ACHN renal
HCT-15 colon = test system: HCT-15 colon
OVCAR-3 ovarian = test system: OVCAR-3 ovarian
RPMI-8226 leukemia = test system: RPMI-8226 leukemia
SN12C renal = test system: SN12C renal
SK-MEL-5 melanoma = test system: SK-MEL-5 melanoma
CCRF-CEM leukemia = test system: CCRF-CEM leukemia
OVCAR-8 ovarian = test system: OVCAR-8 ovarian
OVCAR-4 ovarian = test system: OVCAR-4 ovarian
BT-549 breast = test system: BT-549 breast
SF-539 CNS = test system: SF-539 CNS
SF-268 CNS = test system: SF-268 CNS
PC-3 prostate = test system: PC-3 prostate
HCC-2998 colon = test system: HCC-2998 colon
MOLT-4 leukemia = test system: MOLT-4 leukemia
HL-60(TB) leukemia = test system: HL-60(TB) leukemia
RXF 393 renal = test system: RXF 393 renal
UACC-62 melanoma = test system: UACC-62 melanoma
NCI-H460 lung = test system: NCI-H460 lung
SK-MEL-2 melanoma = test system: SK-MEL-2 melanoma
HOP-92 NSCLC = test system: HOP-92 NSCLC
MDA-MB-231 breast = test system: MDA-MB-231 breast
TK-10 renal = test system: TK-10 renal
UACC-257 melanoma = test system: UACC-257 melanoma
HOP-62 NSCLC = test system: HOP-62 NSCLC
U251 CNS = test system: U251 CNS
HT29 colon = test system: HT29 colon
SNB-19 CNS = test system: SNB-19 CNS
NCI/ADR-RES ovarian = test system: NCI/ADR-RES ovarian
M14 melanoma = test system: M14 melanoma
K-562 leukemia = test system: K-562 leukemia
OVCAR-5 ovarian = test system: OVCAR-5 ovarian
SNB-75 CNS = test system: SNB-75 CNS
CAKI-1 renal = test system: CAKI-1 renal
EKVX NSCLC = test system: EKVX NSCLC
SF-295 CNS = test system: SF-295 CNS
MDA-N = test system: MDA-N
SK-MEL-28 melanoma = test system: SK-MEL-28 melanoma
NCI-H522 lung = test system: NCI-H522 lung
SW-620 colon = test system: SW-620 colon
HS 578T breast = test system: HS 578T breast
COLO 205 colon = test system: COLO 205 colon
KM12 colon = test system: KM12 colon
A498 renal = test system: A498 renal
A549 NSCLC = test system: A549 NSCLC
HCT-116 colon = test system: HCT-116 colon
786-0 renal = test system: 786-0 renal
T-47D breast = test system: T-47D breast
LOX IMVI melanoma = test system: LOX IMVI melanoma

Nc1nc2c(c(-c3ccc(F)cc3)n1)COC/C2=C\c1ccc(F)cc1
TGI (NCI-H226 lung): > 100 µM | TGI (MCF7 breast): > 100 µM | TGI (DU-145 prostate): > 100 µM | TGI (NCI-H23 lung): > 100 µM | TGI (IGROV1 ovarian): > 100 µM | TGI (MDA-MB-435): > 100 µM | TGI (UO-31 renal): 50 µM | TGI (SK-OV-3 ovarian): > 100 µM | TGI (MALME-3M melanoma): 35.1 µM | TGI (SR leukemia): 43.2 µM | TGI (ACHN renal): > 100 µM | TGI (HCT-15 colon): > 100 µM | TGI (OVCAR-3 ovarian): > 100 µM | TGI (RPMI-8226 leukemia): > 100 µM | TGI (SN12C renal): > 100 µM | TGI (SK-MEL-5 melanoma): > 100 µM | TGI (CCRF-CEM leukemia): > 100 µM | TGI (OVCAR-8 ovarian): > 100 µM | TGI (OVCAR-4 ovarian): > 100 µM | TGI (BT-549 breast): > 100 µM | TGI (SF-539 CNS): > 100 µM | TGI (SF-268 CNS): > 100 µM | TGI (PC-3 prostate): > 100 µM | TGI (HCC-2998 colon): > 100 µM | TGI (MOLT-4 leukemia): > 100 µM | TGI (HL-60(TB) leukemia): > 100 µM | TGI (RXF 393 renal): > 100 µM | TGI (UACC-62 melanoma): > 100 µM | TGI (NCI-H460 lung): 34 µM | TGI (SK-MEL-2 melanoma): > 100 µM | TGI (HOP-92 NSCLC): > 100 µM | TGI (MDA-MB-231 breast): > 100 µM | TGI (TK-10 renal): > 100 µM | TGI (UACC-257 melanoma): > 100 µM | TGI (HOP-62 NSCLC): > 100 µM | TGI (U251 CNS): 31 µM | TGI (HT29 colon): 29.3 µM | TGI (SNB-19 CNS): > 100 µM | TGI (NCI/ADR-RES ovarian): > 100 µM | TGI (M14 melanoma): > 100 µM | TGI (K-562 leukemia): > 100 µM | TGI (OVCAR-5 ovarian): > 100 µM | TGI (SNB-75 CNS): 83.1 µM | TGI (CAKI-1 renal): > 100 µM | TGI (EKVX NSCLC): > 100 µM | TGI (SF-295 CNS): > 100 µM | TGI (MDA-N): > 100 µM | TGI (SK-MEL-28 melanoma): > 100 µM | TGI (NCI-H522 lung): 22.7 µM | TGI (SW-620 colon): > 100 µM | TGI (HS 578T breast): > 100 µM | TGI (COLO 205 colon): > 100 µM | TGI (KM12 colon): 29 µM | TGI (A498 renal): > 100 µM

Oc1[nH]c2ccccc2c1N=Nc1nc(-c2ccccc2)cs1
TGI (NCI-H226 lung): > 100 µM | TGI (A549 NSCLC): > 100 µM | TGI (MCF7 breast): > 100 µM | TGI (DU-145 prostate): > 100 µM | TGI (NCI-H23 lung): > 100 µM | TGI (IGROV1 ovarian): > 100 µM | TGI (MDA-MB-435): > 100 µM | TGI (UO-31 renal): > 100 µM | TGI (SK-OV-3 ovarian): > 100 µM | TGI (HCT-116 colon): > 100 µM | TGI (ACHN renal): > 100 µM | TGI (HCT-15 colon): > 100 µM | TGI (OVCAR-3 ovarian): > 100 µM | TGI (SN12C renal): > 100 µM | TGI (SK-MEL-5 melanoma): > 100 µM | TGI (OVCAR-8 ovarian): > 100 µM | TGI (OVCAR-4 ovarian): > 100 µM | TGI (SF-539 CNS): 28.9 µM | TGI (PC-3 prostate): 51.8 µM | TGI (HCC-2998 colon): > 100 µM | TGI (MOLT-4 leukemia): > 100 µM | TGI (786-0 renal): > 100 µM | TGI (NCI-H460 lung): 46.6 µM | TGI (SK-MEL-2 melanoma): > 100 µM | TGI (HOP-92 NSCLC): > 100 µM | TGI (MDA-MB-231 breast): 99.7 µM | TGI (TK-10 renal): > 100 µM | TGI (UACC-257 melanoma): > 100 µM | TGI (HOP-62 NSCLC): 66.4 µM | TGI (U251 CNS): > 100 µM | TGI (HT29 colon): > 100 µM | TGI (SNB-19 CNS): > 100 µM | TGI (NCI/ADR-RES ovarian): 83 µM | TGI (M14 melanoma): > 100 µM | TGI (OVCAR-5 ovarian): > 100 µM | TGI (SNB-75 CNS): 41.3 µM | TGI (CAKI-1 renal): 39.8 µM | TGI (EKVX NSCLC): 76.7 µM | TGI (SF-295 CNS): 63.1 µM | TGI (MDA-N): > 100 µM | TGI (T-47D breast): > 100 µM | TGI (SK-MEL-28 melanoma): > 100 µM | TGI (SW-620 colon): > 100 µM | TGI (LOX IMVI melanoma): > 100 µM | TGI (COLO 205 colon): > 100 µM | TGI (KM12 colon): > 100 µM
